Patent US20240269298A1, “PHOSPHONYL DERIVATIVE, AND COMPOSITION AND PHARMACEUTICAL APPLICATION THEREOF” (XIZANG HAISCO PHARMACEUTICAL CO., LTD., priority 2021, published 2024)
Like-named read-outs stand apart in the source and are kept apart here.

Tested on: NCI-H1975 (EGFR-L858R-T790M) cells
Assay: Inhibitory activity on proliferation of NCI-H1975 (EGFR-L858R-T790M) cells (CTG, 72 h)
Format: cell-based
Details: Homo sapiens
Experimental: NCI-H1975 (EGFR-L858R-T790M) and A431 (EGFR-WT) cells were purchased from ATCC and cultured in an incubator at 37° C. with 5% CO2, and the culture mediums were RPMI1640+10% FBS and DMEM+10% FBS, respectively. On the first day, NCI-H1975 (EGFR-L858R-T790M) and A431 (EGFR-WT) cells in the logarithmic phase were collected, and viable cells were counted using an automatic cell analyzer (countstar). The cell suspensions were adjusted with the culture mediums and plated on a 96-well cell culture plate at 1000 cells/well for NCI-H1975 (EGFR-L858R-T790M) cells and at 3000 cells/well for A431 cells. The next day, the culture mediums were aspirated, and 90 μL of fresh culture mediums and 10 μL of the compounds at different concentrations were added to each well, wherein the final concentration of DMSO in each well was 0.1%. The plate was cultured in the incubator at 37° C. with 5% CO2 for 72 hours. After 72 hours of drug treatment, 50 μL of CTG solution (promega, G7572), which was already pre-melted and equilibrated to room temperature, was added to each well, and the mixtures were uniformly mixed for 2 min using a microplate shaker. The plate was placed at room temperature for 10 min, and then […] signal values were measured using a microplate reader (PHERAstar FSX).
Surviving cells % was calculated based on Vsample/Vvehicle control×100%, wherein Vsample was the readout of the drug-treated group, and Vvehicle control was the average value of the vehicle control group. Using the origin 9.2 software and nonlinear regression model, S-shaped dose-survival curves were plotted, and IC50 values were calculated.

[1] = read-out: IC50 (value in brackets)

| IC50 (read-out: IC50 (class symbol)) [nM] | IC50 [1] [nM] | SMILES |
| --- | --- | --- |
| < 100 | 43 | COc1cc(N2CCC(CN3CCN(c4ccc(C5CCC(=O)NC5=O)cc4)CC3)CC2)c(-c2cnn(C)c2)cc1Nc1ncc(Cl)c(Nc2ccc(-c3ccccc3)cc2P(C)(C)=O)n1 (stereo not drawn) [Compound 155, 3-(4-(4-((1-(4-((5-chloro-4-((3-(dimethylphosphoryl)-[1,1′-biphenyl]-4-yl)amino)pyrimidin-2-yl)amino)-5-methoxy-2-(1-methyl-1H-pyrazol-4-yl)phenyl)piperidin-4-yl)methyl)piperazin-1-yl)phenyl)piperidine-2,6-dione] |
| < 100 | 33 | COc1cc(N2CCC(N3CCN(CC4CCN(c5cc6c(cc5F)C(=O)N(C5CCC(=O)NC5=O)C6=O)CC4)CC3)CC2)c(-c2cnn(C)c2)cc1Nc1ncc(Br)c(Nc2ccc3nccnc3c2P(C)(C)=O)n1 (stereo not drawn) [Compound 29, 5-(4-((4-(1-(4-((5-bromo-4-((5-(dimethylphosphoryl)quinoxalin-6-yl)amino)pyrimidin-2-yl)amino)-5-methoxy-2-(1-methyl-1H-pyrazol-4-yl)phenyl)piperidin-4-yl)piperazin-1-yl)methyl)piperidin-1-yl)-2-(2,6-dioxopiperidin-3-yl)-6-fluoroisoindoline-1,3-dione] |
| 100 to 500 | 111 | COc1cc(N2CCN(c3ccc4c(c3)C(=O)N(C3CCC(=O)NC3=O)C4=O)CC2)c(-c2cnn(C)c2)cc1Nc1ncc(Br)c(Nc2ccccc2P(C)(C)=O)n1 (stereo not drawn) [Compound 169, 5-(4-(4-((5-bromo-4-((2-(dimethylphosphoryl)phenyl)amino)pyrimidin-2-yl)amino)-5-methoxy-2-(1-methyl-1H-pyrazol-4-yl)phenyl)piperazin-1-yl)-2-(2,6-dioxopiperidin-3-yl)isoindoline-1,3-dione] |
| 100 to 500 | 313 | COc1cc(N2CCN(Cc3cccc(NC4CCC(=O)NC4=O)c3)CC2)c(-c2cnn(C)c2)cc1Nc1ncc(Br)c(Nc2ccc(-c3ccccc3)cc2P(C)(C)=O)n1 (stereo not drawn) [Compound 74, 3-((3-((4-(4-((5-bromo-4-((3-(dimethylphosphoryl)-[1,1′-biphenyl]-4-yl)amino)pyrimidin-2-yl)amino)-5-methoxy-2-(1-methyl-1H-pyrazol-4-yl)phenyl)piperazin-1-yl)methyl)phenyl)amino)piperidine-2,6-dione] |
| < 100 | 25 | COc1cc(N2CCN(CC3CCN(c4ccc5c(c4)C(=O)N(C4CCC(=O)NC4=O)C5=O)CC3)CC2)c(-c2cnn(C)c2)cc1Nc1ncc(Cl)c(Nc2ccccc2P(C)(C)=O)n1 (stereo not drawn) [Compound 128, 5-(4-((4-(4-((5-chloro-4-((2-(dimethylphosphoryl)phenyl)amino)pyrimidin-2-yl)amino)-5-methoxy-2-(1-methyl-1H-pyrazol-4-yl)phenyl)piperazin-1-yl)methyl)piperidin-1-yl)-2-(2,6-dioxopiperidin-3-yl)isoindoline-1,3-dione] |
| 100 to 500 |  | COc1cc(N2CCC(N3CCC(CN4CCCC5(CCN(c6ccc7c(c6)C(=O)N(C6CCC(=O)NC6=O)C7=O)CC5)C4)CC3)CC2)c(-c2cnn(C)c2)cc1Nc1ncc(Cl)c(Nc2ccc3nccnc3c2P(C)(C)=O)n1 (stereo not drawn) [Compound 17, 5-(2-((1′-(4-((5-chloro-4-((5-(dimethylphosphoryl)quinoxalin-6-yl)amino)pyrimidin-2-yl)amino)-5-methoxy-2-(1-methyl-1H-pyrazol-4-yl)phenyl)-[1,4′-bipiperidin]-4-yl)methyl)-2,9-diazaspiro[5.5]undecan-9-yl)-2-(2,6-dioxopiperidin-3-yl)isoindoline-1,3-dione] |
| < 100 | 42 | COc1cc(N2CCC(N3CCC(CN4CCN(c5ccc6c(c5)C(=O)N(C5CCC(=O)NC5=O)C6=O)CC4)CC3)CC2)c(-c2cnn(C)c2)cc1Nc1ncc(Br)c(Nc2ccc3nccnc3c2P(C)(C)=O)n1 (stereo not drawn) [Trifluoroacetate of compound 19, 5-(4-((1′-(4-((5-bromo-4-((5-(dimethylphosphoryl)quinoxalin-6-yl)amino)pyrimidin-2-yl)amino)-5-methoxy-2-(1-methyl-1H-pyrazol-4-yl)phenyl)-[1,4′-bipiperidin]-4-yl)methyl)piperazin-1-yl)-2-(2,6-dioxopiperidin-3-yl)isoindoline-1,3-dione] |
| < 100 | 14 | COc1cc(N2CCC3(CCN(CC4CCN(c5ccc6c(c5)C(=O)N(C5CCC(=O)NC5=O)C6=O)CC4)CC3)CC2)c(-c2cnn(C)c2)cc1Nc1ncc(Br)c(Nc2ccc3nccnc3c2P(C)(C)=O)n1 (stereo not drawn) [Trifluoroacetate of compound 20, 5-(4-((9-(4-((5-bromo-4-((5-(dimethylphosphoryl)quinoxalin-6-yl)amino)pyrimidin-2-yl)amino)-5-methoxy-2-(1-methyl-1H-pyrazol-4-yl)phenyl)-3,9-diazaspiro[5.5]undecan-3-yl)methyl)piperidin-1-yl)-2-(2,6-dioxopiperidin-3-yl)isoindoline-1,3-dione] |
| < 100 | 59 | COc1cc(N2CCN(C3CCN(CC4CCN(c5ccc6c(c5)C(=O)N(C5CCC(=O)NC5=O)C6=O)CC4)CC3)CC2)c(-c2cnn(C)c2)cc1Nc1ncc(Cl)c(Nc2ccc3nccnc3c2P(C)(C)=O)n1 (stereo not drawn) [Trifluoroacetate of compound 12, 5-(4-((4-(4-(4-((5-chloro-4-((5-(dimethylphosphoryl)quinoxalin-6-yl)amino)pyrimidin-2-yl)amino)-5-methoxy-2-(1-methyl-1H-pyrazol-4-yl)phenyl)piperazin-1-yl)piperidin-1-yl)methyl)piperidin-1-yl)-2-(2,6-dioxopiperidin-3-yl)isoindoline-1,3-dione] |
| < 100 | 73 | COc1cc(N2CCC(N3CCC(CN4CCC5(CCCN(c6ccc7c(c6)C(=O)N(C6CCC(=O)NC6=O)C7=O)C5)CC4)CC3)CC2)c(-c2cnn(C)c2)cc1Nc1ncc(Cl)c(Nc2ccc3nccnc3c2P(C)(C)=O)n1 (stereo not drawn) [Compound 16, 5-(9-((1′-(4-((5-chloro-4-((5-(dimethylphosphoryl)quinoxalin-6-yl)amino)pyrimidin-2-yl)amino)-5-methoxy-2-(1-methyl-1H-pyrazol-4-yl)phenyl)-[1,4′-bipiperidin]-4-yl)methyl)-2,9-diazaspiro[5.5]undecan-2-yl)-2-(2,6-dioxopiperidin-3-yl)isoindoline-1,3-dione] |
| < 100 | 80 | COc1cc(N2CCC(N3CCC(CN4CCN(c5ccc6c(c5)C(=O)N(C5CCC(=O)NC5=O)C6=O)CC4)CC3)CC2)c(-c2cnn(C)c2)cc1Nc1ncc(Br)c(Nc2ccc(-c3ccccc3)cc2P(C)(C)=O)n1 (stereo not drawn) [Compound 43, 5-(4-((1′-(4-((5-bromo-4-((3-(dimethylphosphoryl)-[1,1′-biphenyl]-4-yl)amino)pyrimidin-2-yl)amino)-5-methoxy-2-(1-methyl-1H-pyrazol-4-yl)phenyl)-[1,4′-bipiperidin]-4-yl)methyl)piperazin-1-yl)-2-(2,6-dioxopiperidin-3-yl)isoindoline-1,3-dione] |
| 100 to 500 | 266 | COc1cc(N2CCC(CN3CCCC4(CCN(c5ccc6c(c5)C(=O)N(C5CCC(=O)NC5=O)C6=O)CC4)C3)CC2)c(-c2cnn(C)c2)cc1Nc1ncc(Cl)c(Nc2ccc(-c3ccccc3)cc2P(C)(C)=O)n1 (stereo not drawn) [Compound 49, 5-(2-((1-(4-((5-chloro-4-((3-(dimethylphosphoryl)-[1,1′-biphenyl]-4-yl)amino)pyrimidin-2-yl)amino)-5-methoxy-2-(1-methyl-1H-pyrazol-4-yl)phenyl)piperidin-4-yl)methyl)-2,9-diazaspiro[5.5]undecan-9-yl)-2-(2,6-dioxopiperidin-3-yl)isoindoline-1,3-dione] |
| 100 to 500 | 182 | COc1cc(N2CCC(N3CCC(CN4CCN(c5ccc6c(c5)C(=O)N(C5CCC(=O)NC5=O)C6=O)CC4)CC3)CC2)c(-c2cnn(C)c2)cc1Nc1ncc(Cl)c(Nc2ccc(-c3ccccc3)cc2P(C)(C)=O)n1 (stereo not drawn) [Compound 53, 5-(4-((1′-(4-((5-chloro-4-((3-(dimethylphosphoryl)-[1,1′-biphenyl]-4-yl)amino)pyrimidin-2-yl)amino)-5-methoxy-2-(1-methyl-1H-pyrazol-4-yl)phenyl)-[1,4′-bipiperidin]-4-yl)methyl)piperazin-1-yl)-2-(2,6-dioxopiperidin-3-yl)isoindoline-1,3-dione] |
| < 100 | 51 | COc1cc(N2CCN(CC3CCN(c4ccc(C(=O)NC5CCC(=O)NC5=O)nc4)CC3)CC2)c(-c2cnn(C)c2)cc1Nc1ncc(Br)c(Nc2ccc(-c3ccccc3)cc2P(C)(C)=O)n1 (stereo not drawn) [Compound 123, 5-(4-((4-(4-((5-bromo-4-((3-(dimethylphosphoryl)-[1,1′-biphenyl]-4-yl)amino)pyrimidin-2-yl)amino)-5-methoxy-2-(1-methyl-1H-pyrazol-4-yl)phenyl)piperazin-1-yl)methyl)piperidin-1-yl)-N-(2,6-dioxopiperidin-3-yl)picolinamide] |
